# In publication PMC9499467, “Phenanthroindolizidine Alkaloids Isolated from Tylophora ovata as Potent Inhibitors of Inflammation, Spheroid Growth, and Invasion of Triple-Negative Breast Cancer” (International Journal of Molecular Sciences, 2022):
# Like-named read-outs stand apart in the source and are kept apart here.
# Experiments:
# [1] = tested on: 3D co-culture spheroids of MDA-MB-231 and primary murine CAFs; assay: 3D growth studies, spheroid size of co-culture spheroids; format: cell-based, human MDA-MB-231; settings: 100 nM, 72 h
# Experimental: To emulate the TNBC microenvironment, 3D spheroids composed of MDA-MB-231 and CAFs at a ratio of 1:2 in a collagen-based matrix were generated. The culture medium of both cell lines was mixed (DMEM:RPMI 1640 (1:1) + 12.5% FCS + 1% PS) and supplemented with 0.05 mg/mL collagen type I (Thermo Fisher Scientific; #A1048301). On day 1, 3000 cells were seeded into a low-attachment 96 well plate (Greiner; #650970). Spheroids were grown for 72 h before proceeding with compound treatment on day 4, and analysis on day 7 according to the “Spheroid immunostaining”, “3D cell viability”, or “3D growth” studies presented in the results section.
# Co-culture spheroids were generated for 72 h before they were exposed to either DMSO (Roth; #A994.1) alone at maximal 0.1%, 100 nM paclitaxel (Santa Cruz Biotechnology; #sc-201439), or 100 nM of compound (1) for another 72 h. At least three spheroids per treatment group were analyzed. For that purpose, brightfield images of the spheroids were acquired at 100× g magnification using the microscope Axio Vert.A1 (Zeiss). The spheroid surface area was quantified in brightfield images using Fiji (open-source software; version 1.52i) and was further defined as spheroid size. In each individual experiment spheroid size was normalized to the smallest (which was set to 0%) and to the largest spheroids (which was set to 100%).
# HIF = tested on: HIF; design: method as in earlier work; settings: luminal breast cancer cell line T47D; ref 62 (Chen et al.); cited from earlier work
# CAFs = assay: 2D cell viability in CAFs; format: cell-based, murine; settings: Mus musculus, 24 h, read-out: Reduction of Cell Viability 24 h IC50 in CAFs
# Experimental: Table S1 IC50-values for reduction of cell viability determined in CAFs.
# Compound Cell Viability 1
# 1 Cell viability of CAFs was determined 24 h post-treatment with the 2D cell viability assay. CAFs were seeded at a cell density of 2.5 × 10^3 cells per well. Compound concentration was applied in triplicates in a four-fold serial dilution starting at 1000 nM. 2 Duration of treatment. 3 Mean ± SD […]
# 50 µM. 4 Mean ± SD (n = 3). 5 Mean ± SD (n = 2).
# MDA-MB-468-UnaG [2] = assay: 2D cell viability in MDA-MB-468-UnaG under normoxia or CoCl2-simulated hypoxia
# MDA-MB-468-UnaG [3] = assay: Cell cycle studies (PI-DNA flow cytometry) in MDA-MB-468-UnaG; format: cell-based; settings: normoxia
# Experimental: To investigate cell cycle progression in the presence of compound (1s) or paclitaxel (Santa Cruz Biotechnology; #sc-201439), we quantified the DNA content in the cell. On day 1, the cells were seeded in 1 mL into a 24 well plate (Greiner; #662160). On day 2, MDA-MB-468-UnaG were pre-treated either without (normoxia) or with 100 µM CoCl2 (hypoxia) (Sigma-Aldrich; #C8661) for 24 h before compounds were applied. On day 2 for MDA-MB-231 or on day 3 for MDA-MB-468-UnaG, paclitaxel was applied at the concentrations 15 nM, 37 nM, and 100 nM, and compound (1s) was applied at concentrations ranging from 2 nM to 1000 nM. Post-treatment cells were washed in 1× PBS (Thermo Fisher Scientific; #14190); fixed in 70% (v/v) ethanol overnight at 4 °C; washed again in 1× PBS; and, finally, DNA was stained for 15 min at 37 °C in the presence of 10 µg/mL propium iodide (PI; Sigma-Aldrich; #4864) and 100 µg/mL RNase A (Thermo Fisher Scientific; #EN0531) dissolved in 0.1% triton™ X-100 (Sigma-Aldrich; #X100), dissolved in PBS. The fluorescence signal resulting from PI-DNA complex formation was recorded using the flow cytometer CytoFlex (Beckmann Coulter, Krefeld, Germany). The cell cycle phase population was determined based on the DNA content in a set of chromosomes (n) in a cell using the integrated software CytExpert (Beckmann Coulter): sub-G0/G1 (<2n), G0/G1 (2n), S (>2n, <4n), G2/M (4n) or hyperploid cells (>4n) (see Figure S10).
# [4] = tested on: MDA-MB-231 monoculture spheroids; assay: 3D invasion of monoculture spheroids into matrigel; format: cell-based, human; settings: 10 nM, 48 h
# Experimental: To study TNBC invasion in an extracellular matrix (ECM)-like environment, mono-culture spheroids of MDA-MB-231 were generated in matrigel®, as described. In brief, 3000 MDA-MB-231 cells were seeded in 0.25% (v/v) matrigel® (Corning, Taufkirchen, Germany; #356432) into a low-attachment 96 well plate (Greiner; #650970 or Cenibra, Bramsche, Germany; #ULA-96U). For cell aggregation, cells were centrifugated for 10 min at 136× g at 4 °C before being grown for 72 h. Invasion was allowed for another […] before analyzing at least three spheroids per treatment group. For that purpose, brightfield images of the spheroids were acquired at 50× g magnification using the microscope Axio Vert.A1 (Zeiss). The spheroid area before treatment and the spheroid area including the invaded area after compound treatment were quantified in brightfield images using Fiji (open-source software; version 1.52i).
# Figure 6 Compound (1s) blocks TNBC monoculture spheroid invasion in a matrigel®-based extracellular matrix (ECM). […] (a) Invaded area was measured using Fiji (open-source software; version 1.52i) with manually picked positions (white squares) to determine the outline (yellow line) of the spheroid area within 0 h and after 48-h treatment. […] (c) Invaded area is calculated by normalizing the spheroid area after 48 h treatment to the spheroid size at 0 h. […]
SMILES,reduction of spheroid growth compared to untreated spheroids [1] [%],HIF induction under low oxygen level (HIF),IC50 (CAFs) [nM],"IC50 (MDA-MB-468-UnaG [2]; 24 h, read-out: cell viability IC50, hypoxia) [nM]","decrease of cytotoxic effects by hypoxia (factor) (MDA-MB-468-UnaG [2]; hypoxia vs normoxia, MDA-MB-468-UnaG)","IC50 (MDA-MB-468-UnaG [2]; read-out: cell viability IC50, normoxia) [nM]",sub-G0/G1 population (MDA-MB-468-UnaG [3]; 48 h),"cell cycle phase population (MDA-MB-468-UnaG [3]; (1s) 20 nM 72 h, paclitaxel within 24 h)",blockade of invasion (invaded area) [4]
"COc1ccc2c3c(c4cc(OC)c(OC)cc4c2c1)CN1CCCC1C3O (stereo not drawn) [Compound (1), O-methyltylophorinidine]",40,blockade of HIF induction,2.7 ± 0.9,,,,,,
"COc1ccc2c3c(c4cc(OC)c(OC)cc4c2c1)CN1CCCC1C3O (stereo not drawn) [Compound (1s), O-methyltylophorinidine]",,,,6.5,barely affected,6.7,increase in the sub-G0/G1 population,significant increase in G2/M population,approximately 65%
